# Laboratory results from patent US20070092474A1, “Carnitine salt, preliposome which contains it and dermocosmetic formula for topical use based upon said carnitine salt” (priority 2003, published 2007).
# Several values for one entry are separate records, joined by “and”; a condition that tells them apart may be missing. Equal values may be shown once.
# System: skin blemishes caused by cellulite and localised adiposity
# Experiment: Plicometry: skin plica thickness measured with a plicometer, dermatological test of the cosmetic gel
# Format: in vivo, female volunteers
# Set-up: RIGHT PLICOMETRY 1/3 T0 / RIGHT PLICOMETRY 3/3 T15 / RIGHT PLICOMETRY 3/3 T30 / RIGHT PLICOMETRY 3/3 T60 / RIGHT PLICOMETRY 1/3 T15 / RIGHT PLICOMETRY 1/3 T30 / RIGHT PLICOMETRY 1/3 T60 / RIGHT PLICOMETRY 2/3 T0 / RIGHT PLICOMETRY 2/3 T15 / RIGHT PLICOMETRY 2/3 T30 / RIGHT PLICOMETRY 2/3 T60 / RIGHT PLICOMETRY 3/3 T0 / LEFT PLICOMETRY 1/3 T0 / LEFT PLICOMETRY 3/3 T15 / LEFT PLICOMETRY 3/3 T30 / LEFT PLICOMETRY 3/3 T60 / LEFT PLICOMETRY 1/3 T30 / LEFT PLICOMETRY 1/3 T60 / LEFT PLICOMETRY 2/3 T0 / LEFT PLICOMETRY 2/3 T15 / LEFT PLICOMETRY 2/3 T30 / LEFT PLICOMETRY 2/3 T60 / LEFT PLICOMETRY 3/3 T0: unit not given beside the values
# Method: A dermatological test was carried out on 25 female volunteers between 18 and 65 years of age, with the backing of the Department of Physiological and Pharmacological Sciences of the university of Pavia. The investigation aimed to check the modification of three anatomical-physiological parameters, qualifying the unaesthetic-functional aspect connected to the manifestation of so-called cellulite and subcutaneous hypertriglyceridaemia: measurement of the skin folds, measurement of the circumference of the thighs, thermographic skin measurement.
# The test stretched out over 60 days with the continual daily application of the aforementioned preparation of cosmetic gel. The measurements were carried out after 15, 30 and 60 days. The detail of the test protocol and of the results obtained is shown hereafter.
# 25 female volunteers aged between 18 and 65, with the presence of skin blemishes caused by cellulite and localised adiposity, were selected according to the following criteria: good general state of health, absence of skin pathologies, not being under medication, commitment not to vary the normal daily routine, no medical history of atopy.
# The samples were tested by uniformly applying them on “Glute SX Glute DJ (Femoris Posto SX Femoris Posto DX Femoris Ant. SX Femoris Ant. DX” every day at least once per day for the entire duration of the test.
# At the time of inclusion in the study and during the subsequent checks after 15 days (T15), after 30 days (T30) and after 60 days (T60) of treatment the following instrumental measurements were taken: • plicometry (through a plicometer) • thigh circumference (through a measuring tape broken into millimetres) • contact thermography (through liquid crystal thermographic plates).
# In particular, the plicometer used in the test constitutes the suitable instrument for measuring the skin plica thickness. Skin plicometry provides numerical data of particular use when the panniculopathic process of the cellulite is associated with localised adiposity.
# [1] = MEDIA of 25 volunteers, T0 at inclusion, before treatment
# [2] = MEDIA of 25 volunteers, after 15 days of daily gel application
# [3] = MEDIA of 25 volunteers, after 30 days of daily gel application
# [4] = MEDIA of 25 volunteers, after 60 days of daily gel application
# [5] = individual volunteer, T0 at inclusion, before treatment
# [6] = individual volunteer, after 15 days of daily gel application
# [7] = individual volunteer, after 30 days of daily gel application
# [8] = individual volunteer, after 60 days of daily gel application
substance,measurement,setting,value
carnitine hydroxycitrate [carnitine hydroxy citrate],"LEFT PLICOMETRY 1/3 T0, MEDIA",[1],25.7
same,"LEFT PLICOMETRY 2/3 T0, MEDIA",[1],29.6
same,"LEFT PLICOMETRY 3/3 T0, MEDIA",[1],31.2
same,"RIGHT PLICOMETRY 1/3 T0, MEDIA",[1],25.7
same,"RIGHT PLICOMETRY 2/3 T0, MEDIA",[1],30.9
same,"RIGHT PLICOMETRY 3/3 T0, MEDIA",[1],33.0
same,"LEFT PLICOMETRY 1/3 T15, MEDIA",[2],25.3
same,"LEFT PLICOMETRY 2/3 T15, MEDIA",[2],28.9
same,"LEFT PLICOMETRY 3/3 T15, MEDIA",[2],30.6
same,"RIGHT PLICOMETRY 1/3 T15, MEDIA",[2],24.4
same,"RIGHT PLICOMETRY 2/3 T15, MEDIA",[2],29.6
same,"RIGHT PLICOMETRY 3/3 T15, MEDIA",[2],32.3
same,"LEFT PLICOMETRY 1/3 T30, MEDIA",[3],23.5
same,"LEFT PLICOMETRY 2/3 T30, MEDIA",[3],27.3
same,"LEFT PLICOMETRY 3/3 T30, MEDIA",[3],29.1
same,"RIGHT PLICOMETRY 1/3 T30, MEDIA",[3],23.4
same,"RIGHT PLICOMETRY 2/3 T30, MEDIA",[3],28.3
same,"RIGHT PLICOMETRY 3/3 T30, MEDIA",[3],30.9
same,"LEFT PLICOMETRY 1/3 T60, MEDIA",[4],22.5
same,"LEFT PLICOMETRY 2/3 T60, MEDIA",[4],26.6
same,"LEFT PLICOMETRY 3/3 T60, MEDIA",[4],28.2
same,"RIGHT PLICOMETRY 1/3 T60, MEDIA",[4],22.7
same,"RIGHT PLICOMETRY 2/3 T60, MEDIA",[4],27.7
same,"RIGHT PLICOMETRY 3/3 T60, MEDIA",[4],29.9
same,LEFT PLICOMETRY 1/3 T0,[5],23.3 and 17.8 and 35.9 and 24.9 (2×) and 21.1 and 25.9 and 19.8 and 26.7 and 26.0 and 31.1 and 26.6 and 19.7 and 22.9 (2×) and 24.6 and 32.8 and 28.1 and 24.0 and 30.8 and 27.9 and 22.8 and 34.6 and 16.8 and 30.5
same,LEFT PLICOMETRY 2/3 T0,[5],28.7 and 22.6 and 38.8 and 24.8 and 27.1 and 28.9 and 28.1 and 40.9 and 33.9 and 30.8 and 27.6 and 24.3 and 27.8 and 20.6 and 31.8 and 29.9 and 22.9 and 27.2 and 25.4 and 35.4 and 39.7 and 25.3 and 41.6 and 23.5 and 32.5
same,LEFT PLICOMETRY 3/3 T0,[5],34.9 and 21.8 and 37.9 and 27.8 and 30.8 and 33.3 and 26.8 and 41.6 and 28.1 and 35.9 (2×) and 35.3 and 20.6 and 33.5 (2×) and 20.1 and 20.3 and 37.2 and 17.8 and 34.1 and 41.5 and 22.9 and 40.9 and 28.9 and 38.1
same,RIGHT PLICOMETRY 1/3 T0,[5],30.5 and 23.3 and 17.8 and 35.9 and 24.9 (2×) and 21.1 and 25.9 and 19.8 and 26.7 and 26.0 and 31.1 and 26.6 and 19.7 and 22.9 (2×) and 24.6 and 32.8 and 28.1 and 24.0 and 30.8 and 27.9 and 22.8 and 34.6 and 16.8
same,RIGHT PLICOMETRY 2/3 T0,[5],37.2 and 30.8 and 26.7 and 32.8 and 20.9 and 29.2 and 36.8 and 26.3 and 34.9 and 35.5 and 33.5 and 29.7 and 24.8 and 29.9 and 22.4 and 31.2 and 33.7 and 27.7 and 26.8 and 25.3 and 37.8 and 41.5 and 28.8 and 39.8 and 27.0
same,RIGHT PLICOMETRY 3/3 T0,[5],40.1 and 41.6 and 25.9 and 32.7 and 29.9 (2×) and 33.8 and 37.1 and 39.8 and 40.6 and 37.7 and 36.8 (2×) and 28.8 and 29.4 and 25.6 and 32.3 and 39.9 and 22.3 and 19.8 and 35.1 and 42.6 and 22.9 and 36.2 and 26.8
same,LEFT PLICOMETRY 1/3 T15,[6],22.6 (3×) and 17.1 and 35.2 and 24.2 (2×) and 20.4 and 25.2 and 19.1 and 26.0 and 25.3 and 30.4 and 27.2 and 19.6 and 23.9 and 32.9 and 27.4 and 24.6 and 30.6 and 27.8 and 22.8 and 33.9 and 16.1 and 29.8
same,LEFT PLICOMETRY 2/3 T15,[6],28.0 and 21.9 and 38.1 and 24.1 and 26.4 and 28.2 and 27.4 and 40.2 and 33.2 and 30.1 and 26.9 and 23.6 and 27.1 and 19.9 and 31.1 and 29.2 and 22.2 and 26.5 and 24.7 and 34.7 and 39.0 and 24.6 and 40.9 and 22.8 and 31.8
same,LEFT PLICOMETRY 3/3 T15,[6],34.3 and 21.2 and 37.3 and 27.2 and 30.2 and 32.7 and 26.2 and 41.0 and 27.5 and 35.3 (2×) and 34.7 and 20.0 and 32.9 (2×) and 19.5 and 19.7 and 36.6 and 17.2 and 33.5 and 40.9 and 22.3 and 40.3 and 28.3 and 37.5
same,RIGHT PLICOMETRY 1/3 T15,[6],29.0 and 22.0 and 16.5 and 34.5 and 23.5 (2×) and 19.6 and 24.5 and 18.4 and 25.3 and 24.2 and 30.0 and 27.1 and 19.5 and 23.0 and 23.2 and 31.0 and 20.3 and 26.7 and 22.6 and 29.4 and 26.5 and 21.4 and 33.2 and 15.4
same,RIGHT PLICOMETRY 2/3 T15,[6],35.7 and 28.5 and 25.2 and 30.8 and 19.4 and 27.7 and 35.3 and 24.8 (2×) and 33.4 and 34.0 and 32.0 and 27.3 (2×) and 23.0 and 29.6 and 20.9 and 31.5 and 32.2 and 27.8 and 25.3 and 38.1 and 40.0 and 37.3 and 27.0
same,RIGHT PLICOMETRY 3/3 T15,[6],40.0 (2×) and 24.9 and 31.7 and 28.9 (2×) and 32.8 and 37.5 and 39.6 and 39.8 and 37.8 and 35.9 and 28.2 and 28.4 and 26.1 and 32.0 and 38.9 and 21.3 and 37.0 and 18.8 and 34.1 and 41.6 and 21.9 and 34.9 and 25.8
same,LEFT PLICOMETRY 1/3 T30,[7],21.0 and 15.5 and 33.6 and 22.6 and 18.8 and 23.6 and 17.5 and 24.4 and 23.7 and 28.8 and 24.3 and 17.4 and 20.6 and 22.3 and 30.5 and 23.5 and 20.2 and 25.8 and 23.8 and 28.5 and 25.6 and 21.6 and 32.3 and 14.5 and 28.2
same,LEFT PLICOMETRY 2/3 T30,[7],26.4 and 20.3 and 36.5 and 22.5 and 24.8 and 26.6 and 25.8 and 38.6 and 31.6 and 28.5 and 25.3 and 22.0 and 25.5 and 18.3 and 29.5 and 27.6 and 20.6 and 24.9 and 23.0 (2×) and 33.5 and 37.4 and 39.3 and 21.2 and 30.2
same,LEFT PLICOMETRY 3/3 T30,[7],32.8 and 19.7 and 35.8 and 25.7 and 28.7 and 31.2 and 24.7 and 39.5 and 26.0 and 33.8 (2×) and 33.2 and 18.5 (2×) and 31.4 (2×) and 18.2 and 35.1 and 15.7 and 32.0 and 39.4 and 20.8 and 38.8 and 26.8 and 36.0
same,RIGHT PLICOMETRY 1/3 T30,[7],28.2 and 18.9 and 15.5 and 33.2 and 22.4 and 18.8 and 23.6 and 17.5 and 24.4 and 24.2 and 28.8 and 26.5 and 17.4 and 22.7 and 21.8 and 31.2 and 22.6 and 20.5 (2×) and 25.8 and 21.7 and 27.6 and 24.3 and 32.5 and 14.5
same,RIGHT PLICOMETRY 2/3 T30,[7],34.6 and 28.2 and 24.0 and 30.2 and 18.2 and 25.4 (2×) and 34.0 and 23.7 and 33.5 and 32.9 and 30.0 and 27.6 and 21.7 and 26.5 and 20.0 and 30.8 and 31.0 and 23.9 and 22.3 and 38.1 and 40.0 and 26.2 and 35.6 and 24.3
same,RIGHT PLICOMETRY 3/3 T30,[7],40.2 and 39.9 and 23.6 and 30.4 and 27.6 (2×) and 31.5 and 36.9 and 38.4 and 38.5 and 36.2 and 33.6 and 26.3 and 26.5 and 23.7 and 31.2 and 37.6 and 19.6 and 36.4 and 17.5 and 30.5 and 39.8 and 20.4 and 34.0 and 25.6
same,LEFT PLICOMETRY 1/3 T60,[8],20.5 and 15.0 and 30.9 and 22.1 (2×) and 18.3 and 23.1 and 17.0 and 23.9 (2×) and 23.2 and 27.6 and 23.6 and 16.5 and 18.4 and 21.2 and 30.5 and 19.8 and 25.3 and 20.7 and 26.2 and 21.5 and 30.4 and 14.0 and 27.7
same,LEFT PLICOMETRY 2/3 T60,[8],25.7 and 19.6 and 35.8 and 21.8 and 24.1 and 25.9 and 25.1 and 37.9 and 30.9 and 27.8 and 24.6 and 21.3 and 24.8 and 17.6 and 28.8 and 26.9 and 19.9 and 24.2 and 22.4 and 32.4 and 36.7 and 22.3 and 38.6 and 20.5 and 29.5
same,LEFT PLICOMETRY 3/3 T60,[8],31.9 and 18.8 and 34.9 and 24.8 and 27.8 and 30.3 and 23.8 and 38.6 and 25.1 and 33.2 and 32.3 and 17.6 and 29.6 and 17.2 and 30.5 and 32.9 and 18.5 and 34.2 and 14.8 and 31.0 and 38.5 and 19.9 and 37.9 and 25.9 and 35.1
same,RIGHT PLICOMETRY 1/3 T60,[8],27.5 and 20.5 and 15.0 and 32.1 and 22.0 and 17.8 and 23.0 and 16.7 (2×) and 23.7 and 24.6 and 27.6 and 26.6 and 21.5 and 21.7 and 28.9 and 21.4 and 18.4 and 24.1 and 21.3 and 28.0 and 23.9 and 19.9 and 31.7 and 13.8
same,RIGHT PLICOMETRY 2/3 T60,[8],34.0 and 26.3 and 23.2 and 29.4 and 17.3 and 26.0 and 32.8 and 23.5 and 33.6 and 32.1 and 30.0 and 26.5 and 20.9 and 26.7 and 20.0 and 27.8 and 29.7 and 25.6 (2×) and 23.9 and 21.8 and 37.7 and 40.0 and 35.3 and 23.8
same,RIGHT PLICOMETRY 3/3 T60,[8],38.9 and 37.4 (2×) and 22.3 (2×) and 29.4 and 27.0 and 32.1 and 35.2 and 36.8 and 26.9 and 35.6 and 33.2 (2×) and 25.3 and 26.6 and 29.5 and 35.4 and 18.2 and 34.1 and 17.0 and 30.9 and 39.8 and 19.7 and 23.7
